ChEMBL document CHEMBL1201862, “PubChem BioAssay data set” (2004)
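96-well plates; 48 h exposure; 5 concentrations. Endpoints by linear interpolation between flanking doses. Not reached: highest tested concentration assigned. GI50 is the concentration that inhibits growth by half.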 Calls of active or inactive are those of the source. No stated cut-off is given here; in the data, active = GI50 up to about 1.1 µM and inactive = higher.

What was measured:
Test in all cases: inhibition of tumour cell growth, NCI panel, 48 h
[1] = test system: Hs-578T
[2] = test system: SF-295
[3] = test system: MCF7
[4] = test system: NCI-H23
[5] = test system: RXF 393
[6] = test system: UO-31
[7] = test system: MDA-N
[8] = test system: LXFL 529
[9] = test system: PC-3
[10] = test system: NCI-H460
[11] = test system: KM12
[12] = test system: MDA-MB-435
[13] = test system: A498
[14] = test system: IGROV-1
[15] = test system: HOP-92
[16] = test system: XF498
[17] = test system: M19-MEL
[18] = test system: DU-145
[19] = test system: DMS-114
[20] = test system: KM-20L2

| SMILES | GI50 [1] | GI50 [2] | GI50 [3] | GI50 [4] | GI50 [5] | GI50 [6] | GI50 [7] | GI50 [8] | GI50 [9] | GI50 [10] | GI50 [11] | GI50 [12] | GI50 [13] | GI50 [14] | GI50 [15] | GI50 [16] | GI50 [17] | GI50 [18] | GI50 [19] | GI50 [20] |
| --- | --- | --- | --- | --- | --- | --- | --- | --- | --- | --- | --- | --- | --- | --- | --- | --- | --- | --- | --- | --- |
| COc1ccc(CC(C#N)c2cc(OC)c(OC)c(OC)c2)cc1 (stereo not given) | 0.0286 µM (active) | 0.0184 µM (active) | < 0.016 µM (active) | 0.109 µM (active) | 0.0575 µM (active) | 0.442 µM (active) | < 0.01 µM (active) | 0.171 µM (active) | 0.014 µM (active) | 0.0409 µM (active) | 0.0194 µM (active) | < 0.01 µM (active) | 0.179 µM (active) | 0.0809 µM (active) | 0.366 µM (active) | 0.356 µM (active) | 0.0676 µM (active) | 0.0422 µM (active) | 0.0418 µM (active) | 0.0541 µM (active) |
| Cc1c(C(=O)/C=C/c2ccc3c(c2)OCO3)[n+]([O-])c2ccccc2[n+]1[O-] | – | 28.7 µM (inactive) | – | 19.5 µM (inactive) | 23 µM (inactive) | 28 µM (inactive) | – | 22.2 µM (inactive) | – | 28.4 µM (inactive) | 31.9 µM (inactive) | – | 20.4 µM (inactive) | 34.6 µM (inactive) | 21.1 µM (inactive) | 25.8 µM (inactive) | 35.2 µM (inactive) | – | 21.4 µM (inactive) | 22.3 µM (inactive) |
| CC(=O)N1CC2Nc3ccccc3C2CC1CO (stereo not given) | – | > 100 µM (inactive) | – | > 100 µM (inactive) | > 100 µM (inactive) | > 100 µM (inactive) | – | > 100 µM (inactive) | – | > 100 µM (inactive) | > 100 µM (inactive) | – | > 100 µM (inactive) | > 100 µM (inactive) | > 100 µM (inactive) | > 100 µM (inactive) | > 100 µM (inactive) | – | > 100 µM (inactive) | > 100 µM (inactive) |
| CN(C)CCCCN1CCc2c(n(C)c3ccccc23)C1=O | 41.8 µM (inactive) | 48.4 µM (inactive) | 37.3 µM (inactive) | 82 µM (inactive) | 31.5 µM (inactive) | 56.9 µM (inactive) | 13.4 µM (inactive) | 19.4 µM (inactive) | – | – | 68.7 µM (inactive) | 17.5 µM (inactive) | – | > 72.6 µM (inactive) | 32 µM (inactive) | 20.7 µM (inactive) | 38 µM (inactive) | > 84.5 µM (inactive) | > 80.7 µM (inactive) | 33 µM (inactive) |
